Data taken from patent publication US11560371B2, “Cereblon binding compounds, compositions thereof, and methods of treatment therewith” (Celgene Corporation, priority 2020, dated 2023).
Structures can show the parent of a compound that is named as a salt.

Biological target: T1, AR (Homo sapiens, UniProt P10275)
T1 construct: endogenous in cells; host or cells: VCaP cells
T1 sequence (P10275 1-920): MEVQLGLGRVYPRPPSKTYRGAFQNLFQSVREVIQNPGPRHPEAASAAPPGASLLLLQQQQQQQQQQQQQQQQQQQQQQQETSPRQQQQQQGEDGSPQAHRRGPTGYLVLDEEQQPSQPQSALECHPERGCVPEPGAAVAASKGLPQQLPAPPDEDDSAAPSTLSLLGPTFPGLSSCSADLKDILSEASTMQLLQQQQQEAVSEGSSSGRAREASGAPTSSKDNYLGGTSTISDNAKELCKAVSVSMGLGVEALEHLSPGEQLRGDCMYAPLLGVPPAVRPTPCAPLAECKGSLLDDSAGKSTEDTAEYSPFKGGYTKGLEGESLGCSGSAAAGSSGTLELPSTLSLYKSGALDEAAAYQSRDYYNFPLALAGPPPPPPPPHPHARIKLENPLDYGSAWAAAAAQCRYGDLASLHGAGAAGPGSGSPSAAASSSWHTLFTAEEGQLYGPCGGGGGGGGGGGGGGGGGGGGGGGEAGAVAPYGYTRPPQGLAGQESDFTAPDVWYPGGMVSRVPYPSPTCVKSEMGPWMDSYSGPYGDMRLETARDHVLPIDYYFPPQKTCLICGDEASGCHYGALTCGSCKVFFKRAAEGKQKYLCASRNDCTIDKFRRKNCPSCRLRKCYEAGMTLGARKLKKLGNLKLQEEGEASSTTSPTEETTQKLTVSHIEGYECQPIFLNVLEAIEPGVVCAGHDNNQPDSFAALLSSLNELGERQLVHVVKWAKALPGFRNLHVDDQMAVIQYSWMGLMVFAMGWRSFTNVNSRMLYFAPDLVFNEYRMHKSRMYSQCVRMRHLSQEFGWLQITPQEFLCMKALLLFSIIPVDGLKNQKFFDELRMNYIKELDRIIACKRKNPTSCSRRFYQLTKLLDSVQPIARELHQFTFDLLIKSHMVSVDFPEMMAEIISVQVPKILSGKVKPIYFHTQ
Test: VCAP AR Degradation Assay
Assay type: cell-based
Details: VCaP cells, 24 h, AR ELISA; for DC50: concentration of compound when AR level = 50% of DMSO control (50% AR degradation); for Y: lowest measured AR level normalized to DMSO control (AR degradation efficiency)
Method: VCAP AR Degradation Assay. Test compounds were pre-dispensed into a Corning CellBind 96-well clear bottom plate (Cat #3300) using an acoustic dispenser to make a 10-point concentration series at 1:3 dilution for each compound. The final top concentration of each compound was 5 μM. DMSO at a final concentration of 0.1% was used as a control. VCaP cells cultured in DMEM with 8% fetal bovine serum (FBS) were seeded at 50K cells per well in a 200 μL volume into the compound plate and incubated at 37° C. in a CO2 incubator for 24 h. The medium was carefully removed from the cells and the plate was placed on ice. […] ice-cold 1× cell lysis buffer from Cell Signaling Technologies (Cat #9803) was added to each well of the cells and the plate was incubated at 4° C. on a shaker for 1 h. Fifteen μL of cell lysate was used for AR ELISA detection using a PathScan Total Sandwich AR ELISA kit (Cell Signaling Technology, Cat #12580). AR levels in compound-treated wells were normalized to that of DMSO control and expressed as percent of control (PoC) (y). A Four Parameter Logistic Model (Sigmoidal Dose-Response Model) was used to determine the compound's DC50, and EC50, using the following equation: y=(A+((B−A)/(1+((C/x)^D)))) • A=YMin (lowest AR level normalized to DMSO control in response to compound treatment, as determined by curve fit) • B=YMax (maximum AR level as determined by curve fit) • C=EC50 • D=Hill Slope • x=compound concentration • EC50=the concentration of compound when y=[…] • DC50=the concentration of the compound when y=50% of DMSO control (50% AR degradation) • y=AR protein level normalized to DMSO control
The lowest measured AR level normalized to DMSO control in response to compound treatment, termed Y value, was used to characterize the compound-mediated AR degradation efficiency.

| SMILES | DC50 | Y | DC50 (hydrochloride) |
| --- | --- | --- | --- |
| Cn1nc(N2CCC(=O)NC2=O)c2cccc(NC(=O)CN3CCC(CCO[C@H]4CC[C@H](N5C(=S)N(c6ccc(C#N)c(C(F)(F)F)c6)C(=O)C5(C)C)CC4)C(F)(F)C3)c21 (stereo partly drawn) [Cmpd 35, 2-(4-(2-(((trans)-4-(3-(4-Cyano-3-(trifluoromethyl)phenyl)-5,5-dimethyl-4-oxo-2-thioxoimidazolidin-1-yl)cyclohexyl)oxy)ethyl)-3,3-difluoropiperidin-1-yl)-N-(3-(2,4-dioxotetrahydropyrimidin-1(2H)-yl)-1-methyl-1H-indazol-7-yl)acetamide] | ≤ 2 nM | * (0<Y≤20%) |  |
| C[C@@H]1CN(CCO[C@H]2CC[C@H](N3C(=S)N(c4ccc(C#N)c(C(F)(F)F)c4)C(=O)C3(C)C)CC2)C[C@H](C)N1CCNc1cccc2c(N3CCC(=O)NC3=O)nn(C)c12 [Cmpd 18, 4-(3-(trans-4-(2-((3R,5S)-4-(2-((3-(2,4-Dioxotetrahydropyrimidin-1(2H)-yl)-1-methyl-1H-indazol-7-yl)amino)ethyl)-3,5-dimethylpiperazin-1-yl)ethoxy)cyclohexyl)-4,4-dimethyl-5-oxo-2-thioxoimidazolidin-1-yl)-2-(trifluoromethyl)benzonitrile hydrochloride] |  | *** (30%<Y<60%) | 10 to 100 nM |
| Cn1nc(N2CCC(=O)NC2=O)c2cccc(NC(=O)CN3CCN(CCO[C@H]4CC[C@H](N5C(=S)N(c6ccc(C#N)c(C(F)(F)F)c6)C(=O)C5(C)C)CC4)C[C@@H]3C(F)(F)F)c21 [Cmpd 20, 2-((R)-4-(2-((trans-4-(3-(4-Cyano-3-(trifluoromethyl)phenyl)-5,5-dimethyl-4-oxo-2-thioxoimidazolidin-1-yl)cyclohexyl)oxy)ethyl)-2-(trifluoromethyl)piperazin-1-yl)-N-(3-(2,4-dioxotetrahydropyrimidin-1(2H)-yl)-1-methyl-1H-indazol-7-yl)acetamide hydrochloride] | ≤ 2 nM | ** (20%<Y≤%) |  |
| C[C@@H]1C[C@H](OCC[C@H]2CC[C@H](N3C(=S)N(c4ccc(C#N)c(C(F)(F)F)c4)C(=O)C3(C)C)CC2)C[C@H](C)N1CC(=O)Nc1cccc2c(N3CCC(=O)NC3=O)nn(C)c12 [Cmpd 31, 2-((2R,4r,6S)-4-(2-((trans)-4-(3-(4-Cyano-3-(trifluoromethyl)phenyl)-5,5-dimethyl-4-oxo-2-thioxoimidazolidin-1-yl)cyclohexyl)ethoxy)-2,6-dimethylpiperidin-1-yl)-N-(3-(2,4-dioxotetrahydropyrimidin-1(2H)-yl)-1-methyl-1H-indazol-7-yl)acetamide] | 2 to 10 nM | ** (20%<Y≤%) |  |
| C[C@@H]1CN(CCC[C@H]2CC[C@H](N3C(=S)N(c4ccc(C#N)c(Cl)c4)C(=O)C3(C)C)CC2)C[C@H](C)N1CC(=O)Nc1cccc2c(N3CCC(=O)NC3=O)nn(C)c12 [Cmpd 11, 2-((2S,6R)-4-(3-(trans-4-(3-(3-Chloro-4-cyanophenyl)-5,5-dimethyl-4-oxo-2-thioxoimidazolidin-1-yl)cyclohexyl)propyl)-2,6-dimethylpiperazin-1-yl)-N-(3-(2,4-dioxotetrahydropyrimidin-1(2H)-yl)-1-methyl-1H-indazol-7-yl)acetamide hydrochloride] | 10 to 100 nM | *** (30%<Y<60%) |  |

Second part, led by results:

| DC50 | Y | SMILES | DC50 (hydrochloride) |
| --- | --- | --- | --- |
| ≤ 2 nM | * (0<Y≤20%) | Cn1nc(N2CCC(=O)NC2=O)c2cccc(NC(=O)CN3CCC(CCO[C@H]4CC[C@H](N5C(=S)N(c6cnc(C#N)c(C(F)(F)F)c6)C(=O)C5(C)C)CC4)C(F)(F)C3)c21 (stereo partly drawn) [Cmpd 36, 2-(4-(2-(((trans)-4-(3-(6-Cyano-5-(trifluoromethyl)pyridin-3-yl)-5,5-dimethyl-4-oxo-2-thioxoimidazolidin-1-yl)cyclohexyl)oxy)ethyl)-3,3-difluoropiperidin-1-yl)-N-(3-(2,4-dioxotetrahydropyrimidin-1(2H)-yl)-1-methyl-1H-indazol-7-yl)acetamide] |  |
| ≤ 2 nM | * (0<Y≤20%) | C[C@@H]1C[C@H](CCO[C@H]2CC[C@H](N3C(=S)N(c4cnc(C#N)c(C(F)(F)F)c4)C(=O)C3(C)C)CC2)C[C@H](C)N1CC(=O)Nc1cccc2c(N3CCC(=O)NC3=O)nn(C)c12 [Cmpd 28, 2-((2R,4r,6S)-4-(2-(((trans)-4-(3-(6-Cyano-5-(trifluoromethyl)pyridin-3-yl)-5,5-dimethyl-4-oxo-2-thioxoimidazolidin-1-yl)cyclohexyl)oxy)ethyl)-2,6-dimethylpiperidin-1-yl)-N-(3-(2,4-dioxotetrahydropyrimidin-1(2H)-yl)-1-methyl-1H-indazol-7-yl)acetamide] |  |
| ≤ 2 nM | ** (20%<Y≤%) | Cn1nc(N2CCC(=O)NC2=O)c2cccc(NC(=O)CN3CCN(CCO[C@H]4CC[C@H](N5C(=S)N(c6cnc(C#N)c(C(F)(F)F)c6)C(=O)C5(C)C)CC4)C[C@@H]3C(F)(F)F)c21 [Cmpd 27, 2-((R)-4-(2-(((trans)-4-(3-(6-Cyano-5-(trifluoromethyl)pyridin-3-yl)-5,5-dimethyl-4-oxo-2-thioxoimidazolidin-1-yl)cyclohexyl)oxy)ethyl)-2-(trifluoromethyl)piperazin-1-yl)-N-(3-(2,4-dioxotetrahydropyrimidin-1(2H)-yl)-1-methyl-1H-indazol-7-yl)acetamide] |  |
| ≤ 2 nM | * (0<Y≤20%) | Cn1nc(N2CCC(=O)NC2=O)c2cccc(NC(=O)CN3CCN(CCCO[C@H]4CC[C@H](N5C(=S)N(c6cnc(C#N)c(C(F)(F)F)c6)C(=O)C5(C)C)CC4)C[C@@H]3C(F)(F)F)c21 [Cmpd 24, 2-((R)-4-(3-(((trans)-4-(3-(6-cyano-5-(trifluoromethyl)pyridin-3-yl)-5,5-dimethyl-4-oxo-2-thioxoimidazolidin-1-yl)cyclohexyl)oxy)propyl)-2-(trifluoromethyl)piperazin-1-yl)-N-(3-(2,4-dioxotetrahydropyrimidin-1(2H)-yl)-1-methyl-1H-indazol-7-yl)acetamide] |  |
| 2 to 10 nM | * (0<Y≤20%) | C[C@@H]1C[C@H](OCCC[C@H]2CC[C@H](N3C(=S)N(c4cnc(C#N)c(C(F)(F)F)c4)C(=O)C3(C)C)CC2)C[C@H](C)N1CC(=O)Nc1cccc2c(N3CCC(=O)NC3=O)nn(C)c12 [Cmpd 30, 2-((2R,4r,6S)-4-(3-((trans)-4-(3-(6-Cyano-5-(trifluoromethyl)pyridin-3-yl)-5,5-dimethyl-4-oxo-2-thioxoimidazolidin-1-yl)cyclohexyl)propoxy)-2,6-dimethylpiperidin-1-yl)-N-(3-(2,4-dioxotetrahydropyrimidin-1(2H)-yl)-1-methyl-1H-indazol-7-yl)acetamide] |  |
| 100 to 10000 nM | *** (30%<Y<60%) | C[C@@H]1CN(CCO[C@H]2CC[C@H](N3C(=S)N(c4ccc(C#N)c(S(F)(F)(F)(F)F)c4)C(=O)C3(C)C)CC2)C[C@H](C)N1CC(=O)Nc1cccc2c(N3CCC(=O)NC3=O)nn(C)c12 [Cmpd 21, 2-((2S,6R)-4-(2-((trans-4-(3-(4-Cyano-3-(pentafluoro-λ^6-sulfaneyl)phenyl)-5,5-dimethyl-4-oxo-2-thioxoimidazolidin-1-yl)cyclohexyl)oxy)ethyl)-2,6-dimethylpiperazin-1-yl)-N-(3-(2,4-dioxotetrahydropyrimidin-1(2H)-yl)-1-methyl-1H-indazol-7-yl)acetamide hydrochloride] |  |
